Test system: Capan-2 cells (K-Ras G12V)
Assay: not given
Conditions: not given

SMILES | IC50
C#Cc1c(F)ccc2cc(N)cc(-c3nc4c5c(nc(OC[C@@]67CCCN6C[C@H](F)C7)nc5c3F)N3CCCOC[C@H]3CO4)c12 [Compound 1] | 6.25 nM
C#Cc1c(F)ccc2cc(N)cc(-c3nc4c5c(nc(OC[C@@]67CCCN6C[C@H](F)C7)nc5c3F)N3[C@@H](C)[C@H](F)COC[C@H]3N4C)c12 [Compound 58] | 0.404 nM
C#Cc1c(F)ccc2cc(N)cc(-c3nc4c5c(nc(OC[C@@]67CCCN6C[C@H](F)C7)nc5c3F)N3[C@@H](C)CCOC[C@H]3N4C)c12 [Compound 36] | 0.352 nM
C#Cc1c(F)ccc2cc(N)cc(-c3nc4c5c(nc(OC[C@@]67CCCN6C[C@H](F)C7)nc5c3F)N3[C@@H](COC)CCOC[C@H]3N4C)c12 [Compound 59A] | 0.316 nM
N#Cc1c(N)sc2c(F)ccc(-c3c(F)c4c5c(nc(OC[C@@]67CCCN6C[C@H](F)C7)nc5c3F)N3CCCOC[C@H]3CO4)c12 (single isomer, unassigned) [Compound 163B] | 6.2 nM
C#Cc1c(F)ccc2cc(N)cc(-c3nc4c5c(nc(OC[C@@]67CCCN6C[C@H](F)C7)nc5c3F)N3[C@@H](C)[C@@H](F)COC[C@H]3N4C)c12 [Compound 57] | 0.453 nM
C#Cc1c(F)ccc2cc(N)cc(-c3nc4c5c(nc(OC[C@@]67CCCN6C[C@H](F)C7)nc5c3F)N3[C@H]5C[C@H]5COC[C@H]3N4C)c12 [Compound 159B] | 5.4 nM
C#Cc1c(F)ccc2cc(N)cc(-c3nc4c5c(nc(OC[C@]67CC(=C)CN6C[C@@H](F)C7)nc5c3F)N3CCCOC[C@H]3N4C)c12 [Compound 171] | 2.54 nM
C#Cc1c(F)ccc2cc(N)cc(-c3nc4c5c(nc(OC[C@@]67CCCN6C[C@H](F)C7)nc5c3F)N3CCCC[C@H](F)[C@H]3N4C)c12 [Compound 40A] | 0.843 nM

Target: GDP-KRAS G12V (Homo sapiens, UniProt P01116, G12V)
Sequence (P01116 1-169 isoform P01116-2 G12V): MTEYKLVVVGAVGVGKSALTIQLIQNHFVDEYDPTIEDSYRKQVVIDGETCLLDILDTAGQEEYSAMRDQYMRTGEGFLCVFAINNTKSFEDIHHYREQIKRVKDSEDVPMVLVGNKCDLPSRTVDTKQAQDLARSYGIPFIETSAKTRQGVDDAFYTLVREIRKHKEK
Assay: biochemical
Conditions: not given

SMILES | IC50
C#Cc1c(F)ccc2cc(N)cc(-c3nc4c5c(nc(OC[C@@]67CCCN6C[C@H](F)C7)nc5c3F)N3[C@@H](C)CCOC[C@H]3N4C)c12 [Compound 36] | 0.189 nM
N#Cc1c(N)sc2c(F)ccc(-c3c(F)c4c5c(nc(OC[C@@]67CCCN6C[C@H](F)C7)nc5c3F)N3CCCOC[C@H]3CO4)c12 (single isomer, unassigned) [Compound 163B] | 1.04 nM
C#Cc1c(F)ccc2cc(N)cc(-c3nc4c5c(nc(OC[C@@]67CCCN6C[C@H](F)C7)nc5c3F)N3CCCC[C@H](F)[C@H]3N4C)c12 [Compound 40A] | 0.912 nM

Target: GppNp-KRAS G12V (Homo sapiens, UniProt P01116, G12V)
Sequence (P01116 1-169 isoform P01116-2 G12V): as above
Assay: biochemical
Conditions: not given

SMILES | IC50
C#Cc1c(F)ccc2cc(N)cc(-c3nc4c5c(nc(OC[C@@]67CCCN6C[C@H](F)C7)nc5c3F)N3[C@@H](C)CCOC[C@H]3N4C)c12 [Compound 36] | 30.4 nM
N#Cc1c(N)sc2c(F)ccc(-c3c(F)c4c5c(nc(OC[C@@]67CCCN6C[C@H](F)C7)nc5c3F)N3CCCOC[C@H]3CO4)c12 (single isomer, unassigned) [Compound 163B] | 18.3 nM
C#Cc1c(F)ccc2cc(N)cc(-c3nc4c5c(nc(OC[C@@]67CCCN6C[C@H](F)C7)nc5c3F)N3CCCC[C@H](F)[C@H]3N4C)c12 [Compound 40A] | 36.4 nM

Target: GDP-KRAS G12D (Homo sapiens, UniProt P01116, G12D)
Sequence (P01116 1-169 isoform P01116-2 G12D): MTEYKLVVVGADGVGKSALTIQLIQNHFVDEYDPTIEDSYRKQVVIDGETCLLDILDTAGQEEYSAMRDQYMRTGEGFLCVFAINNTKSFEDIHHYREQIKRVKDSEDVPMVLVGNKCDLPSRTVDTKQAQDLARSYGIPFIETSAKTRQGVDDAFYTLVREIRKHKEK
Assay: biochemical
Conditions: not given

SMILES | IC50
C#Cc1c(F)ccc2cc(N)cc(-c3nc4c5c(nc(OC[C@@]67CCCN6C[C@H](F)C7)nc5c3F)N3[C@@H](C)CCOC[C@H]3N4C)c12 [Compound 36] | 0.339 nM
N#Cc1c(N)sc2c(F)ccc(-c3c(F)c4c5c(nc(OC[C@@]67CCCN6C[C@H](F)C7)nc5c3F)N3CCCOC[C@H]3CO4)c12 (single isomer, unassigned) [Compound 163B] | 0.879 nM
C#Cc1c(F)ccc2cc(N)cc(-c3nc4c5c(nc(OC[C@@]67CCCN6C[C@H](F)C7)nc5c3F)N3CCCC[C@H](F)[C@H]3N4C)c12 [Compound 40A] | 0.875 nM

Test system: AsPC-1 cells (K-Ras G12D)
Assay: not given
Conditions: not given

SMILES | IC50
C#Cc1c(F)ccc2cc(N)cc(-c3nc4c5c(nc(OC[C@@]67CCCN6C[C@H](F)C7)nc5c3F)N3CCCOC[C@H]3CO4)c12 [Compound 1] | 102 nM
C#Cc1c(F)ccc2cc(N)cc(-c3nc4c5c(nc(OC[C@@]67CCCN6C[C@H](F)C7)nc5c3F)N3[C@@H](C)[C@H](F)COC[C@H]3N4C)c12 [Compound 58] | 21.6 nM
C#Cc1c(F)ccc2cc(N)cc(-c3nc4c5c(nc(OC[C@@]67CCCN6C[C@H](F)C7)nc5c3F)N3[C@@H](C)CCOC[C@H]3N4C)c12 [Compound 36] | 16.9 nM
C#Cc1c(F)ccc2cc(N)cc(-c3nc4c5c(nc(OC[C@@]67CCCN6C[C@H](F)C7)nc5c3F)N3[C@@H](COC)CCOC[C@H]3N4C)c12 [Compound 59A] | 61.8 nM
N#Cc1c(N)sc2c(F)ccc(-c3c(F)c4c5c(nc(OC[C@@]67CCCN6C[C@H](F)C7)nc5c3F)N3CCCOC[C@H]3CO4)c12 (single isomer, unassigned) [Compound 163B] | 14 nM
C#Cc1c(F)ccc2cc(N)cc(-c3nc4c5c(nc(OC[C@@]67CCCN6C[C@H](F)C7)nc5c3F)N3[C@@H](C)[C@@H](F)COC[C@H]3N4C)c12 [Compound 57] | 10 nM
C#Cc1c(F)ccc2cc(N)cc(-c3nc4c5c(nc(OC[C@@]67CCCN6C[C@H](F)C7)nc5c3F)N3[C@H]5C[C@H]5COC[C@H]3N4C)c12 [Compound 159B] | 307 nM
C#Cc1c(F)ccc2cc(N)cc(-c3nc4c5c(nc(OC[C@@]67CCCN6C[C@H](F)C7)nc5c3F)N3CCCC[C@H](F)[C@H]3N4C)c12 [Compound 40A] | 2.54 nM

Test system: SW620 cells (K-Ras G12V)
Assay: Phospho-ERK1/2(THR202/TYR204) HTRF assay, SW620
Type: cell-based
Conditions: Homo sapiens, SW-620, 2 hours incubation, read-out: pERK, IC50, SW620

SMILES | IC50
C#Cc1c(F)ccc2cc(N)cc(-c3nc4c5c(nc(OC[C@@]67CCCN6C[C@H](F)C7)nc5c3F)N3CCCOC[C@H]3CO4)c12 [Compound 1] | 4.43 nM
C#Cc1c(F)ccc2cc(N)cc(-c3nc4c5c(nc(OC[C@@]67CCCN6C[C@H](F)C7)nc5c3F)N3[C@@H](C)CCOC[C@H]3N4C)c12 [Compound 36] | 1.01 nM
C#Cc1c(F)ccc2cc(N)cc(-c3nc4c5c(nc(OC[C@@]67CCCN6C[C@H](F)C7)nc5c3F)N3CCCC[C@H](F)[C@H]3N4C)c12 [Compound 40A] | 0.328 nM

Target: GppNp-KRAS G12D (Homo sapiens, UniProt P01116, G12D)
Sequence (P01116 1-169 isoform P01116-2 G12D): as above
Assay: biochemical
Conditions: not given

SMILES | IC50
C#Cc1c(F)ccc2cc(N)cc(-c3nc4c5c(nc(OC[C@@]67CCCN6C[C@H](F)C7)nc5c3F)N3[C@@H](C)CCOC[C@H]3N4C)c12 [Compound 36] | 19.7 nM
N#Cc1c(N)sc2c(F)ccc(-c3c(F)c4c5c(nc(OC[C@@]67CCCN6C[C@H](F)C7)nc5c3F)N3CCCOC[C@H]3CO4)c12 (single isomer, unassigned) [Compound 163B] | 8.04 nM
C#Cc1c(F)ccc2cc(N)cc(-c3nc4c5c(nc(OC[C@@]67CCCN6C[C@H](F)C7)nc5c3F)N3CCCC[C@H](F)[C@H]3N4C)c12 [Compound 40A] | 9.42 nM

Test system: not listed separately
Assay: Mouse pharmacokinetic study
Type: in vivo
Conditions: Balb/c mouse (female), 3 mg/kg, iv, plasma
Description: The purpose of this study was to evaluate the pharmacokinetic properties of compounds in Balb/c mouse (female) following single dose administration. Six mice were needed for each compound and the six mice were divided into two groups (n=3/group), group A and group B. Mice in group A were treated with a single 3 mg/kg dose of compound (iv). Mice in group B were treated with a single 10 mg/kg dose of compound (po). Foreach mouse in group A, blood samples were collected at the time point of 0.083 h 0.5 h, 1 h, 2 h, 4 h, 8 h and 24 h post-dose. For each mouse in group B, blood samples were collected at the time point of 0.25 h, 0.5 h, 1 h, 2 h, 4 h, 8 h and 24 h post-dose. Blood samples were placed on ice until centrifugation to obtain plasma samples. The plasma samples were stored at −80° C. until analysis. The concentration of compound in plasma samples was determined using a LC-MS/MS method.

SMILES | Cl_obs
C#Cc1c(F)ccc2cc(N)cc(-c3nc4c5c(nc(OC[C@@]67CCCN6C[C@H](F)C7)nc5c3F)N3CCCOC[C@H]3CO4)c12 [Compound 1] | 6.33 mL/min/kg
N#Cc1c(N)sc2c(F)ccc(-c3c(F)c4c5c(nc(OC[C@@]67CCCN6C[C@H](F)C7)nc5c3F)N3CCCOC[C@H]3CO4)c12 (single isomer, unassigned) [Compound 163B] | 1.86 mL/min/kg

Same assay, conditions: Balb/c mouse (female), 3 mg/kg, iv, plasma; read-out: AUC0-24 h

SMILES | AUC(0-t)
C#Cc1c(F)ccc2cc(N)cc(-c3nc4c5c(nc(OC[C@@]67CCCN6C[C@H](F)C7)nc5c3F)N3CCCOC[C@H]3CO4)c12 [Compound 1] | 7990 ng·h/mL
N#Cc1c(N)sc2c(F)ccc(-c3c(F)c4c5c(nc(OC[C@@]67CCCN6C[C@H](F)C7)nc5c3F)N3CCCOC[C@H]3CO4)c12 (single isomer, unassigned) [Compound 163B] | 27300 ng·h/mL

Same assay, conditions: Balb/c mouse (female), 10 mg/kg po vs 3 mg/kg iv

SMILES | F
C#Cc1c(F)ccc2cc(N)cc(-c3nc4c5c(nc(OC[C@@]67CCCN6C[C@H](F)C7)nc5c3F)N3CCCOC[C@H]3CO4)c12 [Compound 1] | 17.2%
N#Cc1c(N)sc2c(F)ccc(-c3c(F)c4c5c(nc(OC[C@@]67CCCN6C[C@H](F)C7)nc5c3F)N3CCCOC[C@H]3CO4)c12 (single isomer, unassigned) [Compound 163B] | 25.3%

Same assay, conditions: Balb/c mouse (female), 10 mg/kg, po, plasma; read-out: AUC0-24 h

SMILES | AUC(0-t)
C#Cc1c(F)ccc2cc(N)cc(-c3nc4c5c(nc(OC[C@@]67CCCN6C[C@H](F)C7)nc5c3F)N3CCCOC[C@H]3CO4)c12 [Compound 1] | 4590 ng·h/mL
N#Cc1c(N)sc2c(F)ccc(-c3c(F)c4c5c(nc(OC[C@@]67CCCN6C[C@H](F)C7)nc5c3F)N3CCCOC[C@H]3CO4)c12 (single isomer, unassigned) [Compound 163B] | 23000 ng·h/mL

Same assay, conditions: Balb/c mouse (female), 10 mg/kg, po, plasma; read-out: Cmax

SMILES | Cmax
C#Cc1c(F)ccc2cc(N)cc(-c3nc4c5c(nc(OC[C@@]67CCCN6C[C@H](F)C7)nc5c3F)N3CCCOC[C@H]3CO4)c12 [Compound 1] | 1140 ng/mL
N#Cc1c(N)sc2c(F)ccc(-c3c(F)c4c5c(nc(OC[C@@]67CCCN6C[C@H](F)C7)nc5c3F)N3CCCOC[C@H]3CO4)c12 (single isomer, unassigned) [Compound 163B] | 5310 ng/mL

Test system: SW620 cells (K-Ras G12V)
Assay: not given
Conditions: not given

SMILES | IC50
C#Cc1c(F)ccc2cc(N)cc(-c3nc4c5c(nc(OC[C@@]67CCCN6C[C@H](F)C7)nc5c3F)N3CCCOC[C@H]3CO4)c12 [Compound 1] | 9.37 nM
C#Cc1c(F)ccc2cc(N)cc(-c3nc4c5c(nc(OC[C@@]67CCCN6C[C@H](F)C7)nc5c3F)N3[C@@H](C)[C@H](F)COC[C@H]3N4C)c12 [Compound 58] | 1.2 nM
C#Cc1c(F)ccc2cc(N)cc(-c3nc4c5c(nc(OC[C@@]67CCCN6C[C@H](F)C7)nc5c3F)N3[C@@H](C)CCOC[C@H]3N4C)c12 [Compound 36] | 1.2 nM
C#Cc1c(F)ccc2cc(N)cc(-c3nc4c5c(nc(OC[C@@]67CCCN6C[C@H](F)C7)nc5c3F)N3[C@@H](COC)CCOC[C@H]3N4C)c12 [Compound 59A] | 13.3 nM
N#Cc1c(N)sc2c(F)ccc(-c3c(F)c4c5c(nc(OC[C@@]67CCCN6C[C@H](F)C7)nc5c3F)N3CCCOC[C@H]3CO4)c12 (single isomer, unassigned) [Compound 163B] | 2.15 nM
C#Cc1c(F)ccc2cc(N)cc(-c3nc4c5c(nc(OC[C@@]67CCCN6C[C@H](F)C7)nc5c3F)N3[C@@H](C)[C@@H](F)COC[C@H]3N4C)c12 [Compound 57] | 3.22 nM
C#Cc1c(F)ccc2cc(N)cc(-c3nc4c5c(nc(OC[C@]67CC(=C)CN6C[C@@H](F)C7)nc5c3F)N3CCCOC[C@H]3N4C)c12 [Compound 171] | 43.7 nM
C#Cc1c(F)ccc2cc(N)cc(-c3nc4c5c(nc(OC[C@@]67CCCN6C[C@H](F)C7)nc5c3F)N3CCCC[C@H](F)[C@H]3N4C)c12 [Compound 40A] | 2.71 nM

Source: patent US20260200947A1, “FUSED CYCLIC COMPOUNDS AND USE THEREOF” (Jacobio Pharmaceuticals Co., Ltd., priority 2022, published 2026)
